The supplement of paper PMC10307832

Legend:
Test in all cases: relative viability (nuclei count vs DMSO), 5 days (fraction); higher = more cells survive
[1] = compound: CC(=O)c1c(C)c2cnc(Nc3ccc(N4CCNCC4)cn3)nc2n(C2CCCC2)c1=O [Palbociclib] + C[C@]1(O)C[C@@H](c2nc(-c3ccc4ccc(-c5ccccc5)nc4c3)c3c(N)nccn32)C1 [Linsitinib] (partner 1 µM)
Summary of the method: (§1)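 Relative viability is defined as nuclei in treated wells over nuclei in vehicle wells. Duplicate plates were run and medians reported. Lung cancer cell lines in 1536-well plates were dosed by pin tool one day after seeding, with one drug or with a fixed anchor-drug dose plus five library-drug doses (not always all listed) in √10 steps, and nuclei were counted after 5 days.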

[2] = compound: CC(=O)c1c(C)c2cnc(Nc3ccc(N4CCNCC4)cn3)nc2n(C2CCCC2)c1=O [Palbociclib] + COc1cccc2cc(-c3nc([C@H]4CC[C@H](C(=O)O)CC4)n4ncnc(N)c34)[nH]c12 [OSI-027] (partner 0.5 µM)
Summary of the method: as §1

[3] = compound: CC(=O)c1c(C)c2cnc(Nc3ccc(N4CCNCC4)cn3)nc2n(C2CCCC2)c1=O [Palbociclib] + CC1(C)CCC(c2ccc(Cl)cc2)=C(CN2CCN(c3ccc(C(=O)NS(=O)(=O)c4ccc(N[C@H](CCN5CCOCC5)CSc5ccccc5)c(S(=O)(=O)C(F)(F)F)c4)cc3)CC2)C1 [Navitoclax] (partner 0.5 µM)
Summary of the method: as §1

[4] = compound: CC(=O)c1c(C)c2cnc(Nc3ccc(N4CCNCC4)cn3)nc2n(C2CCCC2)c1=O [Palbociclib] + CS(=O)(=O)N1CCN(Cc2cc3nc(-c4cccc5[nH]ncc45)nc(N4CCOCC4)c3s2)CC1 [Pictilisib] (partner 1 µM)
Summary of the method: as §1

Cell Line	relative viability ([1]; first compound 0.01 µM)	relative viability ([1]; first compound 0.03162 µM)	relative viability ([1]; first compound 0.1 µM)	relative viability ([1]; first compound 0.3162 µM)	relative viability ([1]; first compound 1 µM)	relative viability ([2]; first compound 0.01 µM)	relative viability ([2]; first compound 0.03162 µM)	relative viability ([2]; first compound 0.1 µM)	relative viability ([2]; first compound 0.3162 µM)	relative viability ([2]; first compound 1 µM)	relative viability ([3]; first compound 0.01 µM)	relative viability ([3]; first compound 0.03162 µM)	relative viability ([3]; first compound 0.1 µM)	relative viability ([3]; first compound 0.3162 µM)	relative viability ([3]; first compound 1 µM)	relative viability ([4]; first compound 0.01 µM)	relative viability ([4]; first compound 0.03162 µM)	relative viability ([4]; first compound 0.1 µM)	relative viability ([4]; first compound 0.3162 µM)	relative viability ([4]; first compound 1 µM)
LU99A	0.587	0.46	0.454	0.355	0.327	0.305	0.274	0.221	0.238	0.223	0.789	0.677	0.759	0.601	0.522	0.328	0.287	0.239	0.236	0.225
HCC-366	0.482	–	0.506	0.494	0.344	0.916	–	0.722	0.731	0.482	1.05	–	0.996	0.877	0.803	0.137	–	0.168	0.14	0.0548
HOP-62	0.995	–	1.01	0.908	0.692	0.793	–	0.697	0.624	0.446	0.959	0.68	0.893	0.86	0.625	0.775	–	0.516	0.551	0.358
NCI-H1734	0.918	0.765	0.789	0.641	0.564	0.684	0.42	0.466	0.413	0.329	0.928	0.779	0.708	0.593	0.487	0.39	0.387	0.331	0.344	0.235
NCI-H3122	0.925	1.02	0.943	0.809	0.63	0.82	0.602	0.346	0.172	0.169	0.941	0.982	0.921	0.757	0.618	0.536	0.523	0.449	0.332	0.234
RERF-LC-KJ	0.954	0.887	0.919	1.04	0.958	0.541	0.583	0.508	0.598	0.64	0.87	0.8	1.26	1.32	1.11	0.53	0.459	0.464	0.484	0.629
NCI-H2087	0.932	0.837	0.826	0.503	0.541	0.433	–	0.361	0.278	0.25	1.04	0.843	0.802	0.685	0.495	0.83	0.669	0.478	0.498	0.393
201T	1.01	0.97	0.901	0.938	0.716	0.763	0.676	0.661	0.613	0.338	1.22	1.2	1.08	1.08	1.01	0.68	0.61	0.622	0.525	0.464
ABC-1	1.06	0.925	0.666	0.583	0.382	0.483	0.443	0.436	0.351	0.301	–	–	–	–	–	0.756	0.758	0.532	0.516	0.423
NCI-H1993	0.706	0.722	0.648	0.693	0.676	0.533	0.505	0.513	0.524	0.509	0.84	0.875	0.752	0.771	0.706	0.858	0.628	0.829	0.812	0.632
NCI-H2085	1.01	0.785	0.77	0.662	0.571	0.658	0.55	0.547	0.574	0.369	1.1	1.04	0.897	0.93	0.776	0.517	0.427	0.398	0.361	0.318
COR-L 105	0.987	0.91	0.509	0.571	0.429	0.676	0.506	0.453	0.429	0.336	0.943	0.808	0.669	0.586	0.401	0.384	0.337	0.261	0.319	0.367
SK-LU-1	0.975	1.06	0.777	0.771	0.627	0.375	0.316	0.231	0.241	0.202	0.938	0.757	0.725	0.539	0.733	0.559	0.474	0.445	0.383	0.286
NCI-H2342	–	–	–	–	–	0.575	0.546	0.566	0.549	0.433	–	–	–	–	–	–	–	–	–	–
PC-3 [JPC-3]	0.981	0.888	0.878	0.787	0.613	0.728	0.599	0.561	0.483	0.349	0.769	0.778	0.66	0.721	0.635	0.778	0.647	0.56	0.677	0.494
NCI-H1563	1.19	1.25	1.15	1	0.887	0.75	0.776	0.74	0.735	0.534	–	–	–	–	–	0.668	0.614	0.555	0.618	0.613
NCI-H2009	1.18	1.02	0.957	0.909	0.494	0.64	0.481	0.331	0.297	0.194	1.15	1.17	0.908	0.896	0.404	0.758	0.453	0.462	0.411	0.182
